Experimental data: US20150342195A1, “ANTI-MICROBIAL COMPOSITIONS, PREPARATIONS, METHODS, AND USES” (MYCO SCIENCES LIMITED, priority 2014, published 2015)
Read-outs that look alike come from different tables or passages of the source.

Assays:
Magnaporthe oryzae = assay: microbe, parasite or virus in culture; assay type: cell-based; details: for Average diameter of fungal growth: Cu—Zn#12 0%, plug subtracted
[1] = test system: Pseudomonas syringae (pv. tomato DC3000); assay: Bacterial microplate culture (resazurin MIC); assay type: cell-based; details: Pseudomonas syringae; 24 hours at 28° C.; highest concentration 400 mg/L (1% of stock solutions); read-out: MIC
Botrytis cinerea = assay: Fungal growth inhibition assay (hyphal growth diameter on PDA); assay type: cell-based; details: for IC50: Botrytis cinerea
Fusarium graminearum = assay: microbe, parasite or virus in culture; assay type: cell-based; details: for IC50: Fusarium graminearum
Trichophyton rubrum = assay: Fungal growth inhibition assay with Trichophyton rubrum; assay type: cell-based
Description: To assess the effects of compositions on fungal growth, 10 microliters of the test compositions diluted in sterile distilled water were placed in the wells of a 12-well tissue culture plate and 1 milliliter of liquid PDA was added by pipette to each well. Where multiple samples were added to each well, the 10 microliter drops were kept separate until they were mixed by the addition of hot liquid PDA and the plate was then agitated to evenly distribute the test composition(s) evenly through the agar (distilled water was used as vehicle control) and then the agar was allowed to set. For most strains (see TABLE 2), plugs of agar containing fungal hyphae (2 to 3 millimeters in diameter) from the edge of an established fungal culture were carefully cut out using a scalpel and inserted into holes cut in the centre of the agar in each well of the 12-well plate. With B. cinerea and U. maydis, mature cultures were washed with 3 ml of sterile distilled water and the spore suspensions obtained were adjusted to O.D. (at 600 nanometers) of 1.0 and 1.5, respectively. A small hole (˜1 millimeter) was made in the center of the PDA in each well with a yellow pipette tip and 1.5 microliters of spore suspension was carefully pipetted into the hole. […] To assess the effects of compositions on fungal growth in all experiments, the diameter of the hyphal growth was measured twice at a 90° angle using a ruler and the average diameter in millimeters was calculated. If no fungal growth could be detected by eye, the cultures were observed by phase microscopy (40×) to confirm that there was no growth (NG).
A clinical isolate of T. rubrum (strain 7107996; Phylum: Acomycota) was kindly provided by Dr. Richard Barton, Leeds University, UK. The growth assays with T. rubrum were as described in EXAMPLE 1, except this strain was cultured at 33° C. on PDA for 6 or 7 days when growth was assessed. T. rubrum cultures were maintained on Sabouraud dextrose agar at 33° C.
FIG. 8 is a graph depicting the effects of selected compositions and compounds on the growth of Trichophyton rubrum. The culture period was 7 days. Growth in the control cultures was 20±0 millimeters (mean±SD for 2 experiments).

[2] = test system: Ralstonia solanacearum (strain PSS4 from tomato); assay: microbe, parasite or virus in culture; assay type: cell-based; details: Ralstonia solanacearum, 24 h
[3] = test system: Mycosphaerella graminicola; assay: Fungal growth inhibition assay (hyphal growth diameter on PDA); assay type: cell-based
Description: The fungal strains used in these studies are described in TABLE 2. The strains were routinely cultured in 9 centimeter Petri dishes containing 10 milliliters of potato dextrose agar (PDA) at room temperature (22° C.) apart from U. maydis (28° C.).
To assess the effects of compositions on fungal growth, 10 microliters of the test compositions diluted in sterile distilled water were placed in the wells of a 12-well tissue culture plate and 1 milliliter of liquid PDA was added by pipette to each well. Where multiple samples were added to each well, the 10 microliter drops were kept separate until they were mixed by the addition of hot liquid PDA and the plate was then agitated to evenly distribute the test composition(s) evenly through the agar (distilled water was used as vehicle control) and then the agar was allowed to set. […] To assess the effects of compositions on fungal growth in all experiments, the diameter of the hyphal growth was measured twice at a 90° angle using a ruler and the average diameter in millimeters was calculated. If no fungal growth could be detected by eye, the cultures were observed by phase microscopy (40×) to confirm that there was no growth (NG).

Ustilago maydis = assay: as above; assay type: cell-based; details: for IC50: Mycosarcoma maydis
[4] = test system: Xanthomonas campestris (strain Race 5 from brassica); assay: Bacterial microplate culture (resazurin MIC); assay type: cell-based; details: Xanthomonas campestris; 24 hours at 28° C.; highest concentration 400 mg/L (1% of stock solutions); read-out: MIC
Aspergillus niger = assay: Fungal growth inhibition assay (hyphal growth diameter on PDA); assay type: cell-based; details: for IC50: Aspergillus niger
Rhizoctonia solani = assay: as above; assay type: cell-based; details: for IC50: Rhizoctonia solani
Alternaria alternata = assay: as above; assay type: cell-based; details: for IC50: Alternaria alternata
plant pathogenic fungi = assay: organism not typed; assay type: cell-based; details: for fungal growth with KS: 1000 milligrams/liter KS
[5] = test system: Xanthomonas oryzae (strain Gx0372); assay: microbe, parasite or virus in culture; assay type: cell-based; details: Xanthomonas oryzae, 24 h
[6] = test system: 4 plant pathogenic bacterial strains; details: KS at ≧10,000 milligrams/liter, any strain
[7] = read-out: Potassium sorbate IC50, mean ± SD, PDA
[8] = read-out: Potassium sorbate IC50, single experiments, PDA

Question: How did the “Average diameter of fungal growth” value (Magnaporthe oryzae; KS 10 mg/L, PDA) turn out when C/C=C/C=C/C(=O)[O-].[K+] [Potassium sorbate] was run?
Answer: The value was 17 mm.

Question: What about the “Average diameter of fungal growth” value (Magnaporthe oryzae; KS 30 mg/L, PDA) of the same compound?
Answer: Its value is 17 mm.

Question: What about the “Average diameter of fungal growth” value (Magnaporthe oryzae; KS 100 mg/L, PDA) of the same compound?
Answer: Its value is 15 mm.

Question: And the “Average diameter of fungal growth” value (Magnaporthe oryzae; KS 150 mg/L, PDA)?
Answer: Its value is 14 mm.

Question: What about the “Average diameter of fungal growth” value (Magnaporthe oryzae; KS 300 mg/L, PDA) of the same compound?
Answer: Its value is 9 mm.

Question: What about the “effect on fungal growth alone” value (Magnaporthe oryzae; KS 10 milligrams/liter alone) of the same compound?
Answer: Its value is “no effect”.

Question: What about the “Minimum KS concentration required for NG” value (Magnaporthe oryzae; PDA, NG = no fungal growth) of the same compound?
Answer: The value was 1000 mg/L.

Question: What about the IC50 (Magnaporthe oryzae; Pyricularia oryzae, read-out: Potassium sorbate IC50, mean ± SD, PDA) of the same compound?
Answer: Its IC50 is 140 µg/mL.

Question: What about the “KS concentration that completely inhibited growth” value (Magnaporthe oryzae; in the presence of […] Cu—Zn#12) of the same compound?
Answer: Its value is 30 milligrams/liter.

Question: And the “times lower KS concentration for complete inhibition” value (Magnaporthe oryzae; with […] Cu—Zn#12 versus KS alone)?
Answer: The value was 33 times.

Question: And the MIC [1]?
Answer: The MIC was greater than 10000 µg/mL.

Question: What about the IC50 (Botrytis cinerea; [7]) of the same compound?
Answer: The IC50 was 175 µg/mL.

Question: What about the IC50 (Botrytis cinerea; [8]) of the same compound?
Answer: Its IC50 is 200 µg/mL.

Question: And the “Potassium sorbate IC50, single experiments” value (“Potassium sorbate IC50” for short) (Botrytis cinerea; PDA)?
Answer: Its value is 150 µg/mL.

Question: What about the “Minimum KS concentration required for NG” value (Botrytis cinerea; PDA, NG = no fungal growth) of the same compound?
Answer: The value was 1000 mg/L.

Question: And the IC50 (Fusarium graminearum; [7])?
Answer: The IC50 was 185 µg/mL.

Question: And the IC50 (Fusarium graminearum; [8])?
Answer: Its IC50 is 150 µg/mL.

Question: What about the “Potassium sorbate IC50” value (Fusarium graminearum; PDA) of the same compound?
Answer: The value was 220 µg/mL.

Question: What about the “Minimum KS concentration required for NG” value (Fusarium graminearum; PDA, NG = no fungal growth) of the same compound?
Answer: The value was 1000 mg/L.

Question: And the “inhibition of fungal growth” value (Trichophyton rubrum; KS 100 milligrams/liter on its own)?
Answer: Its value is 6%.

Question: And the “KS concentration required for complete inhibition of fungal growth” value (Trichophyton rubrum; KS alone (FIG. 9))?
Answer: The value was 300 milligrams/liter.

Question: And the “T. rubrum IC50 values: % of stock solution” value (Trichophyton rubrum; PDA, 33° C., 7 days)?
Answer: The value was 0.017 % of stock solution.

Question: And the IC50 (Trichophyton rubrum; Trichophyton rubrum, 168 h, PDA, 33° C., 7 days, Cu—Zn#12: 50% each of elemental copper and zinc, read-out: T. rubrum IC50 values: Concentration)?
Answer: The IC50 was 17 µg/mL.

Question: What about the MIC [2] of the same compound?
Answer: The MIC was greater than 10000 µg/mL.

Question: What about the “Minimum KS concentration required for NG” value ([3]; NG = no fungal growth) of the same compound?
Answer: The value was 300 mg/L.

Question: What about the IC50 ([3]; Zymoseptoria tritici, read-out: Potassium sorbate IC50, single experiment) of the same compound?
Answer: The IC50 was 150 µg/mL.

Question: And the IC50 (Ustilago maydis; read-out: KS IC50, PDA)?
Answer: Its IC50 is 0.077 µg/mL.

Question: What about the IC50 (Ustilago maydis; [7]) of the same compound?
Answer: Its IC50 is 77 µg/mL.

Question: And the IC50 (Ustilago maydis; [8])?
Answer: Its IC50 is 74 µg/mL.

Question: And the “Potassium sorbate IC50” value (Ustilago maydis; PDA)?
Answer: The value was 80 µg/mL.

Question: And the “Minimum KS concentration required for NG” value (Ustilago maydis; PDA, NG = no fungal growth)?
Answer: Its value is 300 mg/L.

Question: What about the MIC [4] of the same compound?
Answer: The MIC was greater than 10000 µg/mL.

Question: And the IC50 (Aspergillus niger; [7])?
Answer: Its IC50 is 91 µg/mL.

Question: What about the IC50 (Aspergillus niger; [8]) of the same compound?
Answer: The IC50 was 82 µg/mL.

Question: And the “Potassium sorbate IC50” value (Aspergillus niger; PDA)?
Answer: Its value is 100 µg/mL.

Question: What about the “Minimum KS concentration required for NG” value (Aspergillus niger; PDA, NG = no fungal growth) of the same compound?
Answer: Its value is 300 mg/L.

Question: And the “Potassium sorbate IC50” value (Rhizoctonia solani; PDA)?
Answer: Its value is 100 µg/mL.

Question: What about the “Minimum KS concentration required for NG” value (Rhizoctonia solani; PDA, NG = no fungal growth) of the same compound?
Answer: Its value is 1000 mg/L.

Question: What about the IC50 (Rhizoctonia solani; [7]) of the same compound?
Answer: Its IC50 is 91 µg/mL.

Question: What about the IC50 (Rhizoctonia solani; [8]) of the same compound?
Answer: Its IC50 is 73 µg/mL.

Question: What about the IC50 (Alternaria alternata; [7]) of the same compound?
Answer: The IC50 was 190 µg/mL.

Question: And the IC50 (Alternaria alternata; [8])?
Answer: The IC50 was 180 µg/mL.

Question: What about the “Potassium sorbate IC50” value (Alternaria alternata; PDA) of the same compound?
Answer: The value was 200 µg/mL.

Question: And the “Minimum KS concentration required for NG” value (Alternaria alternata; PDA, NG = no fungal growth)?
Answer: Its value is 300 mg/L.

Question: And the “number of fungal strains whose growth was completely inhibited” value (plant pathogenic fungi; 300 milligrams/liter KS, eight strains tested)?
Answer: Its value is 4 strains.

Question: And the “fungal growth with KS” value (plant pathogenic fungi; all eight fungal strains)?
Answer: The value was “completely inhibited”.

Question: And the “fungal growth with KS” value (plant pathogenic fungi; five fungal strains of FIG. 2)?
Answer: The value was “no growth”.

Question: And the IC50 (plant pathogenic fungi; read-out: KS IC50 range on plant pathogenic fungi)?
Answer: Its IC50 is 77 to 190 µg/mL.

Question: And the MIC [5]?
Answer: Its MIC is greater than 10000 µg/mL.

Question: And the “effect on bacterial growth” value [6]?
Answer: Its value is “no effect”.
